No end group written: not given here.
System: CD4+ T-helper cells
Experiment: Cytokine response by multiplex xMAP, CD4+ T-helper cells
Type: cell-based, human
Settings: 2 µM, 24 h
Method: Colorectal adenocarcinoma Caco-2 cell line (ATCC HTB-37) was cultured in complete DMEM/F12 (1:1) medium containing 10% fetal bovine serum (FBS, Gibco) and 1X antibiotic-antimycotic solution (1XAAS, Invitrogen, Waltham, MA, USA). The acute monocytic leukemia THP-1 line (ATCC TIB-202) was cultured in complete RPMI-1640 medium, containing 10% FBS, 1XAAS, and […]. THP-1 cells were differentiated into pro-inflammatory macrophages (Mφ1) with phorbol 12-myristate 13-acetate (Sigma-Aldrich) for 24 h and subsequently polarized with lipopolysaccharide from E. coli (Sigma-Aldrich) and rhIFN-γ (Sigma-Aldrich) for another 48 h according to previously reported protocol. All cells were cultured in a humidified CO2 incubator (5% CO2, 37 °C). Primary peripheral blood mononuclear cells (PBMCs) collected from a healthy donor were purchased from American Type Culture Collection (ATCC PCS-800-011). CD4^+ T-helper and CD8^+ T cytotoxic cells were isolated from PBMCs by magnetic separation with mouse anti-human CD4-PE (clone 13B8.2, Beckman Coulter Diagnostics, Pasadena, CA, USA) and CD8-PE (clone REA734, Miltenyi Biotec, Bergisch Gladbach, Germany), Anti-PE MicroBeads (Miltenyi Biotec), and LS Separation Columns (Miltenyi Biotec). Isolated CD4^+ and CD8^+ cells were expanded separately with Dynabeads™ Human T-Expander CD3/CD28 (Gibco, Waltham, MA, USA) in RPMI-1640 supplemented with 10% FBS, 1XAAS and 100 U/mL rh-IL-2 (Gibco). Regulatory CD4^+ FoxP3^+ T cells (Tregs) were isolated from PBMCs by magnetic separation with CD4^+CD25^+ Regulatory T Cell Isolation Kit, human (Miltenyi Biotec). Primary CD14^+ blood monocytes were isolated from PBMCs by adherence according to standard technique. Monocyte-derived mature dendritic cells (moDCs) were obtained from CD14^+ blood monocytes according to the previously reported protocol. Briefly, blood monocytes were incubated in complete RPMI-1640 medium, containing 10% FBS, 1XAAS, 800 U/mL rhGM-CSF (Sci-Store, Russia, Moscow) and 500 U/mL rhIL-4 (Sci-Store) for 3 days. Fresh complete RPMI-1640 medium with rhGM-CSF and rhIL-4 was added to the culture on day 3. On day 5, fresh complete RPMI-1640 containing 100 U/mL rhTNF-α (Sigma) as well as 800 U/mL rhGM-CSF and 500 U/mL rhIL-4 was added and the culture was incubated for another 4 days until full maturation.
Caco-2 cells were seeded into the wells of a 48-well plate, coated with 0.1% bovine collagen (Sigma-Aldrich) for 24 h, 3 weeks before the experiment with complete DMEM/F12 (1:1) medium renewal every 2–3 days. Monocytes, moDCs, CD4^+ T-helper and CD8^+ T cytotoxic cells, Mφ1, and Regulatory CD4^+ FoxP3^+ T cells were seeded into the wells of 48-well plates in the complete RPMI-1640 medium supplemented with 10% Human AB serum (HABS, Capricorn Scientific, Ebsdorfergrund, Germany) and 1XAAS 24 h prior to the experiment; medium in Caco-2-containing wells was also replaced with the same medium. After 24 h, half of the medium in each well was replaced by fresh complete RPMI-1640 medium with 10% HABS, supplemented with 4 µM of Lc-def for the sample wells or fresh medium alone for the control wells. Cell cultures were kept in CO2-incubator (5% CO2, 37 °C) for another 24 h. Culture supernatants were collected 24 h later and stored at −70 °C degrees less than one month prior to the analytes assessment. […]

With “Lc-def: defensin from lentil Lens culinaris seeds (UniProt:B3F051), recombinant, overexpressed in Escherichia coli (KTCENLSDSFKGPCIPDGNCNKHCKEKEHLLSGRCRDDFRCWCTRNC; disulfide (positions not given here); ends not checked; also: disulfide bonds present, pairing not given here; UniProt B3F051 28-74, looked up)” the EGF was <1.95↓ pg/ml, the Eotaxin was <3.23↓ pg/ml and the FGF-2 was 0 pg/mL. The FLT-3L was <0.45↓ pg/ml, the Fractalkine was <23.19↓ pg/ml and the G-CSF was <2.57↓ pg/ml. For the same substance, the GM-CSF was <1.36↓ pg/ml, the GROa was <0.67↓ pg/ml and the IFNa2 was <4.43↓ pg/ml. For the same substance, the IFNg was <1.99↓ pg/ml, the IL-1RA was <0.83↓ pg/ml and the IL-1a was 8.24 pg/mL. The IL-1b was <18.72↓ pg/ml, the IL-2 was <0.31↓ pg/ml and the IL-3 was <0.48↓ pg/ml. For the same substance, the IL-4 was <0.31↓ pg/ml, the IL-5 was 0.97 pg/mL and the IL-6 was <0.30↓ pg/ml. For the same substance, the IL-7 was <0.33↓ pg/ml, the IL-8 was <0.49↓ pg/ml and the IL-9 was <1.05↓ pg/ml. The IL-10 was <0.68↓ pg/ml, the “IL-12 (p40)” value was <3.02↓ pg/ml and the “IL-12 (p70)” value was <1.48↓ pg/ml. The IL-13 was <5.00↓ pg/ml, the IL-15 was <1.45↓ pg/ml and the IL-17A was <1.55↓ pg/ml. The IL-17E/IL-25 was <20.59↓ pg/ml, the IL-17F was <16.96↓ pg/ml and the IL-18 was <0.35↓ pg/ml. For the same substance, the IL-22 was <8.31↓ pg/ml, the IL-27 was <8.55↓ pg/ml and the IP-10 was <1.56↓ pg/ml. For the same substance, the M-GSF was <23.75↓ pg/ml, the MCP-1 was <1.52↓ pg/ml and the MCP-3 was <3.95↓ pg/ml. The MDC was <0.35↓ pg/ml, the MIG was <3.43↓ pg/ml and the MIP-1a was 7.47 pg/mL. The MIP-1b was 3.99 pg/mL, the PDGF-AA was <7.38↓ pg/ml and the PDGF-AB/BB was <9.75↓ pg/ml. For the same substance, the RANTES was 236.88 pg/mL, the TGF-a was <0.66↓ pg/ml and the TNFa was <3.91↓ pg/ml. The TNFb was <0.73↓ pg/ml, the VEGFa was <1.27↓ pg/ml and the “effects on cytokine production” value was “No effects”. For the same substance, the sCD40L was <6.66↓ pg/ml.

Reference: paper PMC9503459, “Antifungal Activity, Structural Stability, and Immunomodulatory Effects on Human Immune Cells of Defensin from the Lentil Lens culinaris” (Membranes, 2022)
